From patent publication US5536623A, “Method of producing highly water-soluble cyclodextrin complex” (Takeda Chemical Industries, Ltd., priority 1992, dated 1996)
Like-named read-outs stand apart in the source and are kept apart here.

Legend:
[1] = Storage stability at 40° C., TNP-470 quantified by HPLC (Example 6); type: physicochemical; details: powder, 730 h
Protocol: (§1) Column: ODS, YMC-Pack A-312 (Yamamura Chemical Laboratories)
(§2) Mobil phase: water-acetonitrile (1:1 v/v)
(§3) Detector: Ultra violet detector (wavelength: 210 nm)
To a 5 ml aqueous solution containing 726 mg of maltosyl-β-cyclodextrin was added 100 mg of TNP-470, followed by stirring at 25° C. for 180 minutes to yield a solution. This aqueous solution was filtered, and 5 ml of the filtrate was placed in a vial and lyophilized to yield a powder. The stability of this powder and that of TNP-470 alone were compared after storage at 40° C. for i month. TNP-470 was quantified by HPLC.

[2] = type: physicochemical; details: water
Protocol: as §1, §2, §3
To a 5 ml aqueous solution containing 500 mg of glucosyl-β-cyclodextrin (hereinafter abbreviated G1[CyD) was added 250 mg of TNP-470, followed by stirring at 25° C. for 8 hours to obtain a solution. The resulting aqueous solution was filtered and lyophilized in accordance with the standard method to yield a powder. To the entire amount of the powder thus obtained, 5 ml of water was added to yield a uniform aqueous solution. Separately, in accordance With the conventional method, 100 mg of G1βCyD was dissolved in 5 ml of water; 250 mg of TNP-470 was added to this solution, followed by stirring at 25° C. for 8 hours. Then, the solution was filtered. The above uniform solution and the filtered solution were assayed for TNP-470 by HPLC method as described in Comparative Example 1. Also, the saturation solubility of TNP-470 alone was determined by HPLC.

[3] = type: physicochemical; details: water; remark: listed apart in the source
Protocol: To a 5 ml aqueous solution containing 1000 mg of maltosyl-β-cyclodextrin (hereinafter abbreviated G2βCyD) was added 250 mg of 6-O-(N-chloroacetylcarbamoyl) fumagillol (hereinafter abbreviated TNP-470), followed by stirring at 25° C. for 8 hours to obtain a solution. The undissolved portion of TNP-470 was filtered out, and the filtrate was placed in a vial and lyophilized in accordance with a conventional method to yield a powder. To the entire amount of the powder thus obtained, 5 ml of water was added to yield a uniform aqueous solution. Separately, in accordance with the conventional method, 110 mg of G2βCyD was dissolved in 5 ml of water; 250 mg of TNP-470 was added to this solution, followed by stirring at 25° C. for 8 hours. Then, the solution was filtered. The above uniform solution and the filtered solution were assayed for TNP-470 by high performance liquid chromatography (HPLC). Also, the saturation solubility of TNP-470 alone was determined by HPLC.
as §1, §2, §3

CO[C@@H]1[C@H](OC(=O)NC(=O)CCl)CC[C@]2(CO2)[C@H]1[C@@]1(C)O[C@@H]1CC=C(C)C [TNP-470, 6-O-(N-chloroacetylcarbamoyl) fumagillol]
Stability, Percent residence (TNP-470) [1]: 68% | Comparison of Solubility (TNP-470) [2]: 1900 µg/mL | Comparison of Solubility (TNP-470) [3]: 1900 µg/mL
